Data taken from patent US20160214956A1, “NOVEL SOLUBLE GUANYLATE CYCLASE ACTIVATORS AND THEIR USE” (GLAXOSMITHKLINE INTELLECTUAL PROPERTY DEVELOPMENT LIMITED, priority 2013, published 2016).

Molecular target: T1, human sGC (Homo sapiens, UniProt Q02153)
T1 sequence (Q02153 1-619): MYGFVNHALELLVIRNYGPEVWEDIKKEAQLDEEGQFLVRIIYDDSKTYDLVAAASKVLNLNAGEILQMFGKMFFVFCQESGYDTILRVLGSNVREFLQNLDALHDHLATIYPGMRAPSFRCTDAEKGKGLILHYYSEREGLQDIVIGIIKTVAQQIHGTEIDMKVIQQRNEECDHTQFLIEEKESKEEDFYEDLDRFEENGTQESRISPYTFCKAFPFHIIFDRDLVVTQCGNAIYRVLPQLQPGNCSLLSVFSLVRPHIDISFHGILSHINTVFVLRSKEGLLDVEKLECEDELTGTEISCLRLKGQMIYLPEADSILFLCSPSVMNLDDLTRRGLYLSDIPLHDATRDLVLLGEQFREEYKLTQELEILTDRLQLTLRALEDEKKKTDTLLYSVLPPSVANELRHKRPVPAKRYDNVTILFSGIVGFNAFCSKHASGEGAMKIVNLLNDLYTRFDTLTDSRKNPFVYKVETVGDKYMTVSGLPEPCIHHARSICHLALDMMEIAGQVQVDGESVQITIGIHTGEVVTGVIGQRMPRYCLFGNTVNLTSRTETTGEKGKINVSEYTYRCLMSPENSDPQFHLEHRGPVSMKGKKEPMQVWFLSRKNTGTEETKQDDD
T1 sequence (Q02108 1-690 partner): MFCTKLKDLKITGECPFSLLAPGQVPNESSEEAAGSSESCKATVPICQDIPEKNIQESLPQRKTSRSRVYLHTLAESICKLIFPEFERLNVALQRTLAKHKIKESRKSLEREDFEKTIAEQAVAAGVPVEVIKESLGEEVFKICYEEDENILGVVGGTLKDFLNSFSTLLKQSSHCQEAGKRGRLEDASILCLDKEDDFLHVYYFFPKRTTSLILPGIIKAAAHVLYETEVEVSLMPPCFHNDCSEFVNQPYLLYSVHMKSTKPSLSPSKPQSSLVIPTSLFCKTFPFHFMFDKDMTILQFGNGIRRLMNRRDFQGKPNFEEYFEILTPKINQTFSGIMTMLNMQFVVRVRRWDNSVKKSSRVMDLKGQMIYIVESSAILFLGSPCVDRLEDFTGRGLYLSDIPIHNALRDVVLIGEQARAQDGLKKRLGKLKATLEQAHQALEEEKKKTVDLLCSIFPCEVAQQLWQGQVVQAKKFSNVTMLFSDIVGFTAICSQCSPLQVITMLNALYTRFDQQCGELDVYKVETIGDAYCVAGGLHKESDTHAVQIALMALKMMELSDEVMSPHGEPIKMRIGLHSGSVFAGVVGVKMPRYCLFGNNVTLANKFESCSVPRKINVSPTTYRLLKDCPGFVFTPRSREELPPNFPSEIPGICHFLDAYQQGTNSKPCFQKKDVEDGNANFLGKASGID
Experiment: sGC enzyme assay, fluorescence polarisation of labelled cGMP
Type: biochemical
Conditions: human sGC 1 nM, FP assay; concentration able to increase by 5-fold basal cGMP
Protocol: The activity of soluble guanylate cyclase (sGC) was tested in an assay based on measuring the fluorescent polarisation (FP) signal of fluorescently labelled cGMP. FP increased on interaction with an anti-cGMP antibody as the motility of the molecule was reduced. Newly produced cGMP displaced the interaction giving rise to a decrease in polarisation and FP signal which was equated to enzyme activity. Compounds were incubated with human sGC, anti-cGMP antibody, the GTP substrate and fluorescently labelled cGMP. After a period of one hour the assay was stopped with the addition of EDTA and after a further hour the assay was read.
Human sGC was thawed and resuspended in assay buffer (100 mM TRIS, 10 mM MgCl2, 0.2 mM Tween 20, pH7.4, containing 1:100 dilution of sheep anti-cGMP) to give final concentration of 1 nM in the well. A substrate solution was prepared containing GTP and 8-fluo-cGMP in de-ionized water to a final concentration of 25 μM and 50 nM respectively. Assay plates containing 5 μL of various test compounds and of a standard agonist (50 μM-50 nM) in 1% DMSO as 6 point, four fold dilutions across a 96 well plate were used in the assay. The plate also contained 6 wells of DMSO (1%) to produce high control and a cGMP standard curve (14 nM to 10 μM) to convert FP data to cGMP concentration. 25 μL of enzyme mix and 20 μl of substrate mix described above were added to each well of the plate. Samples were mixed on an orbital shaker and then incubated at room temperature for 1 hour. After this incubation period 5 μl of 0.5M EDTA was added to all wells and the plates were incubated for a further hour at room temperature prior to reading the FP signal in an appropriate reader. For data handling FP data were converted to cGMP concentrations and then fitted using ActivityBase software. The activity of a test compound was determined as the pEC500 value which is the concentration able to increase by 5-fold basal cGMP.

COCCOc1ccc(COc2ccccc2-c2cccc(-n3ncc(C(=O)O)c3C(F)(F)F)n2)cc1 [Example 4, 1-(6-(2-((4-(2-methoxyethoxy)benzyl)oxy)phenyl)pyridin-2-yl)-5-(trifluoromethyl)-1H-pyrazole-4-carboxylic acid]
sGC pEC500: 6.6

COCCCOc1ccc(COc2ccccc2-c2cccc(-n3ncc(C(=O)O)c3C(F)(F)F)n2)cc1 [Example 7, 1-(6-(2-((4-(3-methoxypropoxy)benzyl)oxy)phenyl)pyridin-2-yl)-5-(trifluoromethyl)-1H-pyrazole-4-carboxylic acid]
sGC pEC500: 7.1

N#CCCCOc1ccc(COc2ccccc2-c2cccc(-n3ncc(C(=O)O)c3C(F)(F)F)n2)cc1 [Example 8, 1-(6-(2-((4-(3-cyanopropoxy)benzyl)oxy)phenyl)pyridin-2-yl)-5-(trifluoromethyl)-1H-pyrazole-4-carboxylic acid]
sGC pEC500: 7.28

Cc1cc(OCCCC(=O)O)ccc1COc1ccccc1-c1cccc(-n2ncc(C(=O)O)c2C(F)(F)F)n1 [Example 12, 1-(6-(2-((4-(3-carboxypropoxy)-2-methylbenzyl)oxy)phenyl)pyridin-2-yl)-5-(trifluoromethyl)-1H-pyrazole-4-carboxylic acid]
sGC pEC500: 6.59
